Here are results for 23 molecules from ChEMBL document CHEMBL2010736 (ACS Med Chem Lett, 2011).

What is called inhibition is how much of the control response was suppressed. By Ki is commonly meant a measure of affinity in units of concentration, obtained from inhibition or displacement. The EC50 is the midpoint of the concentration-response curve.

Test [1] addresses T1, Adenosine receptor A2a (Homo sapiens, UniProt P29274). Description: Displacement of [3H]CGS21680 from human recombinant adenosine receptor-2A expressed in HEK293 cell membrane at 10 uM after 60 mins by liquid scintillation counting. It counts as cell membranes.
The target in test [2] is T2, Adenosine receptor A1 (Homo sapiens) (UniProt P30542).
T2 sequence (whole entry): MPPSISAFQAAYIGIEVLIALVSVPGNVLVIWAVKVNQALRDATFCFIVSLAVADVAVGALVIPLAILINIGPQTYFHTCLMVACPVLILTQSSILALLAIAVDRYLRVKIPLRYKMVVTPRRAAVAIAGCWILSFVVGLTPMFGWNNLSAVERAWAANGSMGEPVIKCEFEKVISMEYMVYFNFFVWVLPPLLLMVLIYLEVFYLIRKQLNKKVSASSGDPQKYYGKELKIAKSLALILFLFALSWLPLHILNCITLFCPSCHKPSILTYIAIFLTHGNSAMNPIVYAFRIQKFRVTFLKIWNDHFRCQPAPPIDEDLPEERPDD
The test is described as follows: Agonist activity at human recombinant adenosine receptor-1 expressed in CHO cells assessed as inhibition of forskolin-stimulated cAMP production at 10 uM preincubated for 45 mins prior forskolin-induction measured after 15 mins by immunoassay relative to 10 uM CPA. Type of test: functional, cell-based. Background: Cyclic AMP is a second messenger, typically raised through Gs and lowered through Gi signalling.

Test [3] concerns the target T3, Adenosine receptor A1 (Homo sapiens, UniProt P30542).
T3 sequence (P30542 whole entry): T2 sequence (whole entry)
The test is described as follows: Displacement of [3H]R-PIA from human recombinant adenosine receptor-1 expressed in CHO cell membrane after 60 mins by liquid scintillation counting. It counts as cell membranes. Background: Displacement assays read how much labelled ligand stays bound in the presence of the test substance.

Test [4] concerns the target T1, Adenosine receptor A2a. The test is described as follows: Displacement of [3H]CGS21680 from human recombinant adenosine receptor-2A expressed in HEK293 cell membrane after 60 mins by liquid scintillation counting. Type of test: cell membranes.
Test [5] has as its target T4, Adenosine receptor A3 (Homo sapiens, UniProt P0DMS8).
T4 sequence (P0DMS8 whole entry): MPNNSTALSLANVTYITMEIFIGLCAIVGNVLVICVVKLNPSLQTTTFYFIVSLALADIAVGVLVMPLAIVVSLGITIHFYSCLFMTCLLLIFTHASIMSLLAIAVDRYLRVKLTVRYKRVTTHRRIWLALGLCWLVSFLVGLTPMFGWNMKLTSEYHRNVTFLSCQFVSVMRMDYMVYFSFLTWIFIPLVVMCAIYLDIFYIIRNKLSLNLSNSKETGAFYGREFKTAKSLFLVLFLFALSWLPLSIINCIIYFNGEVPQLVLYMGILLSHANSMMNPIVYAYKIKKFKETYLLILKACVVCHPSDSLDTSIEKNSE
The test is described as follows: Displacement of [125I]AB-MECA from human recombinant adenosine receptor-3 expressed in CHO cell membrane after 60 mins by gamma-counting. It counts as cell membranes.

In test [6] the target is T2, Adenosine receptor A1 (Homo sapiens). Description: Displacement of [3H]R-PIA from human recombinant adenosine receptor-1 expressed in CHO cell membrane at 10 uM after 60 mins by liquid scintillation counting. It counts as cell membranes.
For test [7], the species on record is Homo sapiens. The test is described as follows: Selectivity ratio of Ki for human recombinant adenosine receptor-3 to Ki for human recombinant adenosine receptor-1.
The target of test [8] is T5, Adenosine receptor A1 (Rattus norvegicus, UniProt P25099).
T5 sequence (P25099 whole entry): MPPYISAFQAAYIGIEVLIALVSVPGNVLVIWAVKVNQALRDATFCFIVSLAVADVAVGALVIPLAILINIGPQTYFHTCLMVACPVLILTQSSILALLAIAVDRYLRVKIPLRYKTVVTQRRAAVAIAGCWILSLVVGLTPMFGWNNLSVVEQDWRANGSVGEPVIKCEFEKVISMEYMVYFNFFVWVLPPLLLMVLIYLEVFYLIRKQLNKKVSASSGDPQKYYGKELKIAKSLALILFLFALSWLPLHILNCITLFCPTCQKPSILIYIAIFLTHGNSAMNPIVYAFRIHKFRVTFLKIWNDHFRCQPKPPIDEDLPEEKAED
Description: Displacement of [3H]R-PIA from rat forebrain adenosine receptor-1.

Test [9] has as its target T3, Adenosine receptor A1. Description: Agonist activity at human recombinant adenosine receptor-1 expressed in CHO cells assessed as inhibition of forskolin-stimulated cAMP production preincubated for 45 mins prior forskolin-induction measured after 15 mins by immunoassay. Type of test: functional, cell-based.
The species named for test [10] is Homo sapiens. The test is described as follows: Selectivity ratio of Ki for human recombinant adenosine receptor-1 to Ki for human recombinant adenosine receptor-3.
The target in test [11] is T6, Adenosine receptor A1 (Rattus norvegicus) (UniProt P25099).
T6 sequence (whole entry): T5 sequence (P25099 whole entry)
Description: Antagonist activity at adenosine receptor-1 in rat adipocytes. It counts as functional, cell-based.

For test [12], the target named is T7, Adenosine receptor A3 (Rattus norvegicus) (UniProt P28647).
T7 sequence (whole entry): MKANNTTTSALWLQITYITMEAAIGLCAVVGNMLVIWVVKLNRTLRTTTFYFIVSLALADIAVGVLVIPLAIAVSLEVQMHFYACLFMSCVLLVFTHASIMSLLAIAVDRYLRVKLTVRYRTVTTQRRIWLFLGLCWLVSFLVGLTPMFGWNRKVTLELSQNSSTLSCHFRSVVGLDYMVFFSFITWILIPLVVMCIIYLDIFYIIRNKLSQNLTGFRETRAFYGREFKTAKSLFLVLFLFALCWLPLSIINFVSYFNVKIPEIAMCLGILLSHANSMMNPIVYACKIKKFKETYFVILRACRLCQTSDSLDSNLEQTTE
The test is described as follows: Partial agonist activity at rat adenosine receptor-3. Type of test: functional.

SMILES strings stand for the structures. Calls of active or inactive are those of the source. The rule behind the calls is not given here.

T1 sequence (P29274 whole entry): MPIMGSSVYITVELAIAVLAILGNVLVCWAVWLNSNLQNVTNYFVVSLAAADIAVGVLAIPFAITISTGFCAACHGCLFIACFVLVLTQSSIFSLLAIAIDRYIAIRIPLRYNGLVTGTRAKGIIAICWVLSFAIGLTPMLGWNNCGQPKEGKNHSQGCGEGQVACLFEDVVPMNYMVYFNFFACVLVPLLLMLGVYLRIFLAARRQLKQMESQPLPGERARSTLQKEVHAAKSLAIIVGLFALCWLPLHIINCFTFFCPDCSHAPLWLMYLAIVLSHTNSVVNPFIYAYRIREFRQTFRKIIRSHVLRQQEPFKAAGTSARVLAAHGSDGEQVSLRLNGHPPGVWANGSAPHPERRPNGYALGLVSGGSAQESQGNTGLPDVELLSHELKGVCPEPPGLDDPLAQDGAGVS

Regarding `O[C@@H]1[C@H](O)[C@@H]2C[C@@H]2[C@H]1n1cnc2c(NCCCF)nc(Cl)nc21`, the inhibition in test [1] is 29%; in test [2], 23.2%.
On to `COc1cc(F)c(F)cc1CNc1nc(Cl)nc2c1ncn2[C@H]1[C@H](O)[C@H](O)[C@@H]2C[C@@H]21`, for which the Ki worked out at 1910 nM in [3], 7510 nM in [4] and 40.4 nM in [5].
With `COc1ccc(F)c(F)c1CNc1nc(Cl)nc2c1ncn2[C@H]1[C@H](O)[C@H](O)[C@@H]2C[C@@H]21`, the inhibition in test [6] was determined as 41%; in test [1] it was 30%. Besides, the Ki in [5] was 83.2 nM.
On to `Nc1nc(Cl)nc2c1ncn2[C@H]1[C@H](O)[C@H](O)[C@@H]2C[C@@H]21`, for which, in test [2], the inhibition was 68.1%.
For the molecule `CCNc1nc(Cl)nc2c1ncn2[C@H]1[C@H](O)[C@H](O)[C@@H]2C[C@@H]21`, the inhibition in test [1] turned out to be 11%.
As for `O[C@@H]1[C@H](O)[C@@H]2C[C@@H]2[C@H]1n1cnc2c(NC3CCCCCCC3)nc(Cl)nc21`, the results for the inhibition in [1] and in [2] were 43% and 40.1%, respectively. Further, the Ratio Ki in test [7] came to 2.
Regarding `CC(Nc1nc(Cl)nc2c1ncn2[C@H]1[C@H](O)[C@H](O)[C@@H]2C[C@@H]21)C1CC1` (mixture of isomers), the inhibition in [1] stood at 41%.
As to `O[C@@H]1[C@H](O)[C@@H]2C[C@@H]2[C@H]1n1cnc2c(NCc3ccccc3OCCF)nc(Cl)nc21`, the inhibition in test [6] came out at 46%; in test [1] it was 32%.
As for `O[C@@H]1[C@H](O)[C@@H]2C[C@@H]2[C@H]1n1cnc2c(N[C@H]3C[C@H]4CC[C@H]3C4)nc(Cl)nc21`, the inhibition constant (Ki) in test [3] turned out to be 82.6 nM; in test [4] it was 2450 nM; in [5], 315 nM; in test [8], 0.34 nM. In addition, the inhibition in test [2] was 62.1%. The Ratio Ki in [7] was 4.
On to `CCOc1ccccc1CNc1nc(Cl)nc2c1ncn2[C@H]1[C@H](O)[C@H](O)[C@@H]2C[C@@H]21`, for which the inhibition in test [6] came out at 34%; in [1] it was 32%. The Ki in [5] is 15.2 nM.
Consider `O[C@@H]1[C@H](O)[C@@H]2C[C@@H]2[C@H]1n1cnc2c(NCc3cccc(OCCF)c3)nc(Cl)nc21`, for which the Ki in test [3] was 3580 nM; in test [5], 114 nM. The inhibition in test [1] came out at 46%.
For the molecule `O[C@@H]1[C@H](O)[C@@H]2C[C@@H]2[C@H]1n1cnc2c(NCc3cc(F)ccc3F)nc(Cl)nc21`, the inhibition constant (Ki) in test [3] worked out at 1260 nM; in test [5] it was 16.5 nM. Further, the inhibition in test [1] stood at 38%.
On to `O[C@@H]1[C@H](O)[C@@H]2C[C@@H]2[C@H]1n1cnc2c(NC3CCCCC3)nc(Cl)nc21`, for which the inhibition in test [2] came out at 38%. The inhibition constant Ki in [8] stood at 0.9 nM. In addition, the Ratio Ki in test [7] turned out to be 2.
`O[C@@H]1[C@H](O)[C@@H]2C[C@@H]2[C@H]1n1cnc2c(NC(C3CC3)C3CC3)nc(Cl)nc21`: in test [9], the concentration for a half-maximal effect (EC50) is 40.7 nM. Besides, in test [8], the Ki was 0.8 nM.
Regarding `CCC(CC)Nc1nc(Cl)nc2c1ncn2[C@H]1[C@H](O)[C@H](O)[C@@H]2C[C@@H]21`, the inhibition in [2] was 28.6%.
On the same count and under the same terms, for `O[C@@H]1[C@H](O)[C@@H]2C[C@@H]2[C@H]1n1cnc2c(NC3CCCCCC3)nc(Cl)nc21` the value was 48.1%.
With `O[C@@H]1[C@H](O)[C@@H]2C[C@@H]2[C@H]1n1cnc2c(N[C@@H]3C[C@H]4CC[C@H]3C4)nc(Cl)nc21`, the Ki in [3] was 200 nM; in test [4] it was 4080 nM; in test [5] it was 236 nM; in [8], 0.7 nM. Also, in test [2], the inhibition came out at 27.8%.
For `O[C@@H]1[C@H](O)[C@@H]2C[C@@H]2[C@H]1n1cnc2c(NC3CCC3)nc(Cl)nc21`, the affinity in test [8], expressed as Ki, was 0.7 nM.
In the case of `CC(C)Nc1nc(Cl)nc2c1ncn2[C@H]1[C@H](O)[C@H](O)[C@@H]2C[C@@H]21`, the values for the inhibition in [1] and in test [2] were 39% and 50.5%, respectively. The same molecule registered a Ki in [8] of 1.9 nM.
With `O[C@@H]1[C@H](O)[C@@H]2C[C@@H]2[C@H]1n1cnc2c(NC3CC3)nc(Cl)nc21`, in [2], the inhibition was found to be 79%.
For `O[C@@H]1[C@H](O)[C@@H]2C[C@@H]2[C@H]1n1cnc2c(NCC3CC3)nc(Cl)nc21`, the inhibition in test [2] is 81%. In [8], this molecule had an inhibition constant Ki of 0.8 nM.
`O[C@@H]1[C@H](O)[C@@H]2C[C@@H]2[C@H]1n1cnc2c(NCc3ccccc3F)nc(Cl)nc21`: in [1], the inhibition came to 31%. In test [8], this molecule gave an inhibition constant Ki of 6 nM. Further, the Ratio Ki in test [10] worked out at 115.
As to `CCCCn1c(=O)c2c(ncn2[C@@H]2O[C@H](C(=O)NC)C[C@H]2O)n(CCCC)c1=O`, the result in test [11] and in test [12] was Active.
